Experiment [1] has as its target Procathepsin L (Homo sapiens) (UniProt P07711). Kind of experiment: Inhibition of Cathepsin L in HEK293 cells harboring human ACE2 assessed as reduction in SARS-CoV-2 S pseudovirions entry into host cell pretreated for 1 hr followed by viral infection and measured after overnight incubation by luciferase method. It counts as cell-based. The following applies: concentration not given here.

Experiment [2] has as its system SARS-CoV-2. Kind of experiment: Antiviral activity against nCoV-2019 BetaCoV/Wuhan/WIV04/2019 infected in African green monkey VeroE6 cells assessed as reduction in viral yield preincubated for 1 hr followed by viral infection and further replacement of fresh medium containing compound and measured at 48 hrs post infection by qRT-PCR method. Format: functional, organism-based. The following applies: Severe acute respiratory syndrome coronavirus 2, BetaCoV/Wuhan/WIV04/2019, Vero C1008. For orientation: Quantitative PCR measures a nucleic acid by following its amplification.

The structures appear in SMILES notation. pEC50: −log10 of the molar value. A value given as a limit tells only on which side of the number the result lay.

Procathepsin L (Homo sapiens), sequence (P07711 114-333 limits assumed): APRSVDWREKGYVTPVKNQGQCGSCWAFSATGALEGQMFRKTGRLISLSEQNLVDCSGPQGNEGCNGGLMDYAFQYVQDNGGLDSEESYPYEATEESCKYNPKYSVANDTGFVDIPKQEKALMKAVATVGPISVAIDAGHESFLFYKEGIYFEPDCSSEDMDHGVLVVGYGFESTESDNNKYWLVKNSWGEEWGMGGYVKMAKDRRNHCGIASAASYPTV

A word on the inhibition: it is the relative decrease from the control value, in per cent. Take `CCc1ccccc1NC(=O)CSC(=O)NNC(=O)[C@H](Cc1c[nH]c2ccccc12)NC(=O)OC(C)(C)C`: the inhibition in experiment [1] was over 76%. As usually defined, the pEC50 is the EC50 on a negative log10 scale, so that one unit is a factor of ten. In the case of `Nc1nc2c(ncn2CCC(CO)CO)c(=O)[nH]1` [PENCICLOVIR], in experiment [2], the pEC50 was 4.02.
